Assay results reported in patent US20260184710A1, “CASITAS B-LINEAGE LYMPHOMA PROTOONCOGENE B (CBL-B) DEGRADING COMPOUNDS AND ASSOCIATED METHODS OF USE” (Arvinas Operations, Inc., priority 2022, published 2026).

Key:
Cbl-b [1] = molecular target: T1, Cbl-b (Homo sapiens, UniProt Q13191); assay: Cbl-b Degradation Method A (FACS, anti-Cbl-b antibody staining); format: cell-based; conditions: Cbl-b-HiBit KI Jurkat Cells, incubated at least 20 hours; for DC50: half maximal degradation, read-out: Cbl-b Degredation Method A IC50; for Dmax: Jurkat, maximum degradation observed, read-out: Cbl-b Degredation Method A Dmax (%)
T1 construct: Cbl-b-HiBit KI Jurkat Cells were purchased from Promega; host or cells: Cbl-b-HiBiT knock-in Jurkat cells
T1 sequence (Q13191 whole entry): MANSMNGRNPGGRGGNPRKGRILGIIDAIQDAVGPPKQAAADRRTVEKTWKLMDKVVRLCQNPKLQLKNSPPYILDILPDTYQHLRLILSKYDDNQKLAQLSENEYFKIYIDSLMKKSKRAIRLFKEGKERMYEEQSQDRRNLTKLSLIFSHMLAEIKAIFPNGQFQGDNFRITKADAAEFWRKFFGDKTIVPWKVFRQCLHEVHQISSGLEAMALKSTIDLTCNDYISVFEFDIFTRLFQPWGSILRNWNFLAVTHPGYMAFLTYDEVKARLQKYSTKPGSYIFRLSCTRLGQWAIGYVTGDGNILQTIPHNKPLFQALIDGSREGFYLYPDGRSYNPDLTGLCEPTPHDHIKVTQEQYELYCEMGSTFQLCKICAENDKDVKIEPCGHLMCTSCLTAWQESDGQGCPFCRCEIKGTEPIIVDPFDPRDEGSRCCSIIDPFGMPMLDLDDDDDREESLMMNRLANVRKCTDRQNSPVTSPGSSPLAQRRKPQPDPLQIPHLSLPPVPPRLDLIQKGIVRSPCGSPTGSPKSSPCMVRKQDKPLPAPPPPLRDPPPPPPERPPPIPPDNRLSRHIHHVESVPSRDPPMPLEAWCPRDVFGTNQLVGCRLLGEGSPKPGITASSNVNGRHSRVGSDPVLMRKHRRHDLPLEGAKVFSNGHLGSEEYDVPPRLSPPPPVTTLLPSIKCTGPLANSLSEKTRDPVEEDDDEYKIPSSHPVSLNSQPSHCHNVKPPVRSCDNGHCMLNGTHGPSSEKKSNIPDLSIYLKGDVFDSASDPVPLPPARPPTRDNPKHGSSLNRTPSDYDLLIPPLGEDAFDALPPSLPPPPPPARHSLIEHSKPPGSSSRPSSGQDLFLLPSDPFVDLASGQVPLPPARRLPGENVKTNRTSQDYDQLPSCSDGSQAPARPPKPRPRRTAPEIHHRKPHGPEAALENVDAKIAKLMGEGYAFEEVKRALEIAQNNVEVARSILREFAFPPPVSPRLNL
How it was run: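 Cbl-b-HiBit KI Jurkat cells treated with compound for at least 20 h at 37 °C, then fixed, permeabilized and stained with anti-Cbl-b antibody plus anti-rabbit AF488 secondary. Cbl-b levels read by FACS; DC50 and Dmax (percent of control) derived.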

Cbl-b [2] = molecular target: T1, Cbl-b; assay: Cbl-b Degradation Method B (Nano-Glo HiBiT lytic detection); format: cell-based; conditions: Cbl-b-HiBit KI Jurkat Cells, incubated at least 6-24 hours; for DC50: half maximal degradation, read-out: Cbl-b Degredation Method B IC50; for Cbl-b Degredation Method B Dmax (%) / Dmax: maximum degradation observed; for Dmax: read-out: Cbl-b Degredation Method B Dmax (%)
How it was run: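 Cbl-b-HiBiT knock-in Jurkat cells (20,000/well) were treated after ~24 h plating with an 11-point 1:3 series for 6-24 h at 37° C. Remaining Cbl-b measured by Nano-Glo HiBiT lytic luminescence. DC50 and Dmax expressed as % of control.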

Row | SMILES | DC50 (Cbl-b [1]) [nM] | Dmax (Cbl-b [1]) [%] | DC50 (Cbl-b [2]) [nM] | Cbl-b Degredation Method B Dmax (%) (Cbl-b [2]) | Dmax (Cbl-b [2]) [%]
1 | CC(C)n1c(=O)n(C2CCC(=O)NC2=O)c2cccc(N3CCC(O[C@H]4CC[C@H](CN5CCN(Cc6cc7c(c(C(F)(F)F)c6)CN(c6cccc([C@]8(Cc9nncn9C)C[C@@H](C#N)C8)c6)C7=O)CC[C@H]5C)CC4)CC3)c21 (stereo partly drawn) [Example 323, (1r,3r)-3-[3-(6-{[(5R)-5-methyl-4-{[(1r,4r)-4-({1-[1-(2,6-dioxopiperidin-3-yl)-2-oxo-3-(propan-2-yl)-2,3-dihydro-1H-1,3-benzodiazol-4-yl]piperidin-4-yl}oxy)cyclohexyl]methyl}-1,4-diazepan-1-yl]methyl}-1-oxo-4-(trifluoromethyl)-2,3-dihydro-1H-isoindol-2-yl)phenyl]-3-[(4-methyl-4H-1,2,4-triazol-3-yl)methyl]cyclobutane-1-carbonitrile] | 5 to 50 | 35 to 70 | < 5 | C (C ≤ 35) | –
2 | CC1c2nc(N3CCC(O[C@H]4CC[C@H](CN5CCN(Cc6cc7c(c(C(F)(F)F)c6)CN(c6cccc(C8(Cc9nncn9C)CCC8)c6)C7=O)CC5)CC4)CC3)ccc2C(=O)N1C1CCC(=O)NC1=O (mixture of isomers) [Example 232, rac-3-[7-methyl-5-oxo-2-(4-{[(1r,4r)-4-[(4-{[2-(3-{1-[(4-methyl-4H-1,2,4-triazol-3-yl)methyl]cyclobutyl}phenyl)-3-oxo-7-(trifluoromethyl)-2,3-dihydro-1H-isoindol-5-yl]methyl}piperazin-1-yl)methyl]cyclohexyl]oxy}piperidin-1-yl)-5H,6H,7H-pyrrolo[3,4-b]pyridin-6-yl]piperidine-2,6-dione] | 5 to 50 | > 70 | < 5 | – | 35 to 70
3 | C[C@@H]1c2nc(N3CCC(O[C@H]4CC[C@H](CN5CCN(Cc6cc7c(c(C(F)(F)F)c6)CN(c6cccc(C8(Cc9nncn9C)CC(C#N)C8)c6)C7=O)C(C)(C)C5)CC4)CC3)ccc2C(=O)N1C1CCC(=O)NC1=O (single isomer, unassigned) [Example 306, (1r***,3r***)-3-(3-{6-[(2,2-dimethyl-4-{[(1r**,4r**)-4-({1-[(7R*)-6-(2,6-dioxopiperidin-3-yl)-7-methyl-5-oxo-5H,6H,7H-pyrrolo[3,4-b]pyridin-2-yl]piperidin-4-yl}oxy)cyclohexyl]methyl}piperazin-1-yl)methyl]-1-oxo-4-(trifluoromethyl)-2,3-dihydro-1H-isoindol-2-yl}phenyl)-3-[(4-methyl-4H-1,2,4-triazol-3-yl)methyl]cyclobutane-1-carbonitrile] | 50 to 500 | 35 to 70 | < 5 | C (C ≤ 35) | –
4 | Cn1cnnc1CC1(c2cccc(N3Cc4c(cc(N5CC6(CCN(CC7CCN(c8ccc9c(c8F)CN(C8CCC(=O)NC8=O)C9=O)CC7)CC6)C5)cc4C(F)(F)F)C3=O)c2)COC1 (stereo not drawn) [Example 1, 3-{4-fluoro-5-[4-({2-[2-(3-{3-[(4-methyl-4H-1,2,4-triazol-3-yl)methyl]oxetan-3-yl}phenyl)-3-oxo-7-(trifluoromethyl)-2,3-dihydro-1H-isoindol-5-yl]-2,7-diazaspiro[3.5]nonan-7-yl}methyl)piperidin-1-yl]-1-oxo-2,3-dihydro-1H-isoindol-2-yl}piperidine-2,6-dione] | < 5 | 35 to 70 | < 5 | – | 35 to 70
5 | Cn1cnnc1CC1(c2cccc(N3Cc4c(cc(CN5CCC[C@H](CN6CCC(CC7CCN(c8ccc9c(c8)C(=O)N(C8CCC(=O)NC8=O)C9=O)CC7)CC6)C5)cc4C(F)(F)F)C3=O)c2)COC1 (stereo partly drawn) [Example 111, 2-(2,6-dioxopiperidin-3-yl)-5-{4-[(1-{[(3R)-1-{[2-(3-{3-[(4-methyl-4H-1,2,4-triazol-3-yl)methyl]oxetan-3-yl}phenyl)-3-oxo-7-(trifluoromethyl)-2,3-dihydro-1H-isoindol-5-yl]methyl}piperidin-3-yl]methyl}piperidin-4-yl)methyl]piperidin-1-yl}-2,3-dihydro-1H-isoindole-1,3-dione] | 50 to 500 | – | > 500 | – | –
6 | Cc1cc(N2CCC(CN3CCC4(CCN(c5cc6c(c(C(F)(F)F)c5)CN(c5cccc([C@]7(Cc8nncn8C)C[C@@H](C#N)C7)c5)C6=O)C4)C3)CC2)c(F)c2c1C(=O)N(C1CCC(=O)NC1=O)C2 (stereo partly drawn) [Example 177, (1r,3r)-3-(3-{6-[7-({1-[2-(2,6-dioxopiperidin-3-yl)-4-fluoro-7-methyl-1-oxo-2,3-dihydro-1H-isoindol-5-yl]piperidin-4-yl}methyl)-2,7-diazaspiro[4.4]nonan-2-yl]-1-oxo-4-(trifluoromethyl)-2,3-dihydro-1H-isoindol-2-yl}phenyl)-3-[(4-methyl-4H-1,2,4-triazol-3-yl)methyl]cyclobutane-1-carbonitrile] | 5 to 50 | 35 to 70 | < 5 | – | 35 to 70
7 | Cn1cnnc1CC1(c2cccc(N3Cc4c(cc(CN5CCC(COCCOc6ccc7c(c6)C(=O)N(C6CCC(=O)NC6=O)C7=O)CC5)cc4C(F)(F)F)C3=O)c2)COC1 (stereo not drawn) [Example 87, 2-(2,6-dioxopiperidin-3-yl)-5-(2-((1-((2-(3-(3-((4-methyl-4H-1,2,4-triazol-3-yl)methyl)oxetan-3-yl)phenyl)-3-oxo-7-(trifluoromethyl)isoindolin-5-yl)methyl)piperidin-4-yl)methoxy)ethoxy)isoindoline-1,3-dione] | 50 to 500 | – | > 500 | – | –
8 | CC1c2nc(N3CCC(O[C@H]4CC[C@@H](CN5CCN(C[C@H]6CCCN(Cc7cc8c(c(C(F)(F)F)c7)CN(c7cccc(C9(Cc%10nncn%10C)COC9)c7)C8=O)C6)CC5)CC4)CC3)ccc2C(=O)N1C1CCC(=O)NC1=O (stereo partly drawn) [Example 160, 3-[7-methyl-5-oxo-2-(4-{[(1r,4r)-4-[(4-{[(3S)-1-{[2-(3-{3-[(4-methyl-4H-1,2,4-triazol-3-yl)methyl]oxetan-3-yl}phenyl)-3-oxo-7-(trifluoromethyl)-2,3-dihydro-1H-isoindol-5-yl]methyl}piperidin-3-yl]methyl}piperazin-1-yl)methyl]cyclohexyl]oxy}piperidin-1-yl)-5H,6H,7H-pyrrolo[3,4-b]pyridin-6-yl]piperidine-2,6-dione] | < 5 | 35 to 70 | < 5 | – | 35 to 70
9 | Cn1cnnc1C[C@]1(c2cccc(N3Cc4c(cc(CN5CCN(C[C@H]6CC[C@H](OC7CCN(c8cccc9c8n(C)c(=O)n9C8CCC(=O)NC8=O)CC7)CC6)CC5(C)C)cc4C(F)(F)F)C3=O)c2)C[C@H](C#N)C1 (stereo partly drawn) [Example 301, (1r,3r)-3-(3-{6-[(2,2-dimethyl-4-{[(1r,4r)-4-({1-[1-(2,6-dioxopiperidin-3-yl)-3-methyl-2-oxo-2,3-dihydro-1H-1,3-benzodiazol-4-yl]piperidin-4-yl}oxy)cyclohexyl]methyl}piperazin-1-yl)methyl]-1-oxo-4-(trifluoromethyl)-2,3-dihydro-1H-isoindol-2-yl}phenyl)-3-[(4-methyl-4H-1,2,4-triazol-3-yl)methyl]cyclobutane-1-carbonitrile] | 50 to 500 | > 70 | < 5 | C (C ≤ 35) | –
10 | Cn1cnnc1CC1(c2cccc(N3Cc4c(cc(CN5CCC[C@@H](CN6CCN(C[C@H]7CC[C@H](OC8CCN(c9ccc%10c(c9F)CN(C9CCC(=O)NC9=O)C%10=O)CC8)CC7)CC6(C)C)C5)cc4C(F)(F)F)C3=O)c2)COC1 (stereo partly drawn) [Example 286, 3-[4-fluoro-1-oxo-5-(4-{[(1r,4r)-4-[(3,3-dimethyl-4-{[(3R)-1-{[2-(3-{3-[(4-methyl-4H-1,2,4-triazol-3-yl)methyl]oxetan-3-yl}phenyl)-3-oxo-7-(trifluoromethyl)-2,3-dihydro-1H-isoindol-5-yl]methyl}piperidin-3-yl]methyl}piperazin-1-yl)methyl]cyclohexyl]oxy}piperidin-1-yl)-2,3-dihydro-1H-isoindol-2-yl]piperidine-2,6-dione] | 50 to 500 | 35 to 70 | < 5 | C (C ≤ 35) | –
11 | Cn1cnnc1[C@]1(c2cccc(N3Cc4c(cc(CN5CCC[C@H](CN6CCN(C[C@H]7CC[C@@H](OC8CCN(c9ccc%10c(c9F)CN(C9CCC(=O)NC9=O)C%10=O)CC8)CC7)CC6)C5)cc4C(F)(F)F)C3=O)c2)C[C@H](C)C1 (stereo partly drawn) [Example 159, 3-[4-fluoro-1-oxo-5-(4-{[(1r,4r)-4-[(4-{[(3S)-1-[(3-oxo-2-{3-[(1s,3r)-3-methyl-1-(4-methyl-4H-1,2,4-triazol-3-yl)cyclobutyl]phenyl}-7-(trifluoromethyl)-2,3-dihydro-1H-isoindol-5-yl)methyl]piperidin-3-yl]methyl}piperazin-1-yl)methyl]cyclohexyl]oxy}piperidin-1-yl)-2,3-dihydro-1H-isoindol-2-yl]piperidine-2,6-dione] | < 5 | > 70 | < 5 | – | 35 to 70
12 | Cn1cnnc1CC1(c2cccc(N3Cc4c(cc(CN5CCN(C6CCC7(CC6)CCN(c6ccc8c(c6)C(=O)N(C6CCC(=O)NC6=O)C8=O)CC7)CC5)cc4C(F)(F)F)C3=O)c2)COC1 (stereo not drawn) [Example 105, 2-(2,6-dioxopiperidin-3-yl)-5-[9-(4-{[2-(3-{3-[(4-methyl-4H-1,2,4-triazol-3-yl)methyl]oxetan-3-yl}phenyl)-3-oxo-7-(trifluoromethyl)-2,3-dihydro-1H-isoindol-5-yl]methyl}piperazin-1-yl)-3-azaspiro[5.5]undecan-3-yl]-2,3-dihydro-1H-isoindole-1,3-dione] | > 500 | – | > 500 | – | –
